Measurements published in PMC4282169 (Nature, 2014).

Molecular target: T1, BoGH5A (Bacteroides ovatus, UniProt A7LXT7)
T1 sequence (A7LXT7 34-502 limits assumed): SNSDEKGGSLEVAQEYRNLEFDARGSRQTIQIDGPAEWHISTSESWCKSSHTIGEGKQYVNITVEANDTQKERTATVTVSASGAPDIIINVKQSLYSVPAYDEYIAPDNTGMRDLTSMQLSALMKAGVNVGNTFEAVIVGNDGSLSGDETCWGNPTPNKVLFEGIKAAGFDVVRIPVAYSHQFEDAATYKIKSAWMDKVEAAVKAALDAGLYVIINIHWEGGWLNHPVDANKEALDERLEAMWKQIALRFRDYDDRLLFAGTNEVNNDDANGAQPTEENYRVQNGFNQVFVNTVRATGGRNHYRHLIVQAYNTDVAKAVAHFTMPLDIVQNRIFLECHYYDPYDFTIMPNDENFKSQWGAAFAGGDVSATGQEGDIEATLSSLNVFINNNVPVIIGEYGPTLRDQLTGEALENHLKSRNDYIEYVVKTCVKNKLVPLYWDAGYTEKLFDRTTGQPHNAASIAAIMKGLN
Test: 2-chloro-4-nitrophenolate release, A405, continuous
Format: biochemical
Settings: read-out: Km (mM) ^‡; 37 °C, 50 mM buffer at or near pH optimum (6.0-7.0)

`O=[N+]([O-])c1ccc(O[C@@H]2O[C@H](CO)[C@@H](O[C@@H]3O[C@H](CO[C@H]4OC[C@@H](O)[C@H](O)[C@H]4O[C@@H]4O[C@H](CO)[C@H](O)[C@H](O)[C@H]4O)[C@@H](O[C@@H]4O[C@H](CO[C@H]5OC[C@@H](O)[C@H](O)[C@H]5O[C@@H]5O[C@H](CO)[C@H](O)[C@H](O)[C@H]5O)[C@@H](O[C@@H]5O[C@H](CO[C@H]6OC[C@@H](O)[C@H](O)[C@H]6O)[C@@H](O)[C@H](O)[C@H]5O)[C@H](O)[C@H]4O)[C@H](O)[C@H]3O)[C@H](O)[C@H]2O)c(Cl)c1` [XLLG-β-CNP] was tested, and the Km was 0.145 ± 0.024 mM.
